These results are taken from PubChem BioAssay (NCI).

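Protocol summary: plate cells (96-well), add compound at 5 concentrations, incubate 48 h, interpolate endpoints linearly. Here, GI50 denotes the concentration required for 50% inhibition of growth. Definition used: TGI = concentration required for complete inhibition of growth.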

Holding throughout (assay): inhibition of tumour cell growth, NCI panel, 48 h
Experiment [1] relates to EKVX NSCLC.
Experiment [2] deals with UACC-62 melanoma.
Experiment [3] deals with CAKI-1 renal.
The subject of experiment [4] is OVCAR-5 ovarian.
The subject of experiment [5] is UO-31 renal.
Experiment [6] relates to OVCAR-8 ovarian.
Experiment [7] relates to NCI-H522 lung.
The subject of experiment [8] is OVCAR-3 ovarian.
In experiment [9] the test system is IGROV1 ovarian.
Experiment [10] relates to HS 578T breast.

Take `O=S(=O)([O-])c1ccc2c(c1)-c1nc-2nc2[n-]c(nc3nc(nc4[n-]c(n1)c1ccc(S(=O)(=O)[O-])cc41)-c1cc(S(=O)(=O)[O-])ccc1-3)c1ccc(S(=O)(=O)[O-])cc21.[Cu+2].[Na+]`: the GI50 in experiment [1] was over 60.4 µM; in experiment [2], 21.7 µM; in experiment [3] it was over 100 µM; in experiment [4] it was over 100 µM; in experiment [5] it was over 39.6 µM; in experiment [6] it was over 100 µM. Further, the GI50 in experiment [7] was 44.8 µM; in [8], over 28.3 µM; in experiment [9], over 100 µM; in experiment [10], over 100 µM. Further, the TGI in [1] is over 100 µM; in [2] it was over 100 µM; in experiment [3], over 100 µM; in [4] it was over 100 µM; in [5], over 93.9 µM; in experiment [6] it was over 100 µM. Moreover, the TGI in experiment [7], in experiment [8], in [9] and in experiment [10] was over 100 µM in each case.

On to `Cc1nnc(S(=O)(=O)c2ccc(N=Nc3c(N)nc(N)nc3N)cc2)s1`, for which the TGI in experiment [1], in experiment [2], in [3], in experiment [4], in [5] and in [6] was over 100 µM throughout. Also, the TGI in [7], in experiment [8], in experiment [9] and in [10] was over 100 µM in each case.

Take `CC(C)(C)C(=O)OCOP(=O)(OCOC(=O)C(C)(C)C)C1CCCN(O)C1=O` (stereo not given): the GI50 in [1] is 0.657 µM; in experiment [2], 0.318 µM; in experiment [3] it was 0.324 µM; in experiment [4], 2.01 µM; in experiment [5] it was 0.306 µM; in [6] it was 0.305 µM. The GI50 in [7] is 0.308 µM; in experiment [8], 0.559 µM; in experiment [9] it was 0.393 µM; in experiment [10] it was 0.314 µM. The TGI in experiment [1] was 12.5 µM; in [2] it was 2.1 µM; in experiment [3], over 100 µM; in [4] it was 62.7 µM; in experiment [5] it was 6.41 µM; in experiment [6], 8.91 µM. In addition, the TGI in experiment [7] was 1.83 µM; in experiment [8], over 100 µM; in experiment [9], 2.73 µM; in experiment [10], 8.27 µM.
